According to patent US20230220047A1, “PEPTIDES FOR TREATMENT OF SEPSIS AND CANCER” (NORWEGIAN UNIVERSITY OF SCIENCE AND TECHNOLOGY (NTNU), priority 2020, published 2023):

How the values were obtained:
[1] = system: TLR4; assay: Western blot of LPS signalling in murine immortalized BMDMs; type: cell-based, mouse; conditions: murine macrophages, 10 μM, LPS
Procedure: Western blot analysis of lysates from cells pretreated with media containing controls (water, DMSO or 10 μM control peptide C3-Pen) or P7-Pen peptide for 30 min before stimulation with LPS (K12 LPS, 100 ng/ml) for designated time periods.
Protein pellets were dissolved by heating protein pellets for 10 min at 95° C. in buffer containing 4 M urea, 1 SDS (Sigma) and NuPAGE® LDS Sample Buffer (4×) (Thermo Fisher Scientific). Otherwise, lysates were made using 1× RIPA lysis buffer (150 mM NaCl, 50 mM TrisHCl (pH 7.5), 1% Triton X100, 5 mM EDTA, protease inhibitors, phosphatase inhibitors). For Western blot analysis we used pre-cast protein gels NuPAGE™ Novex™ and iBlot Transfer Stacks iBlot Gel Transfer Device (Thermo Fisher Scientific). Proteins were transferred to the membrane by dry-blotting using iBlot® 2 NC Regular/Mini Stacks (Life Technologies) in the iBlot 2 Dry Blotting System (Life Technologies). After secondary antibody incubation, membranes were washed and incubated with HRP substrate solution (SuperSignal™ West Femto Maximum Sensitivity Substrate (Thermo Fisher Scientific)). Images were taken using Odyssey® Fc (LI-CORE). Quantification graphs were generated by the analysis of signal intensities for protein bands (protein of interest and endogenous loading control—β-tubulin from the same membrane) using Odyssey software (LI-CORE). Data were normalised to the expression levels of β-tubulin and presented as a relative fold change to the control sample.
In addition, pre-treatment of murine macrophages with P7-Pen inhibited LPS-mediated phosphorylation of TBK1 and IκBα, and decreased phosphorylation of p38 MAPK (FIG. 23).

[2] = system: TLR4; assay: Primary human macrophages stimulated with LPS: cytokine mRNA and p38 MAPK phosphorylation; type: cell-based; conditions: LPS-treated primary human macrophages
Procedure: (§1) Primary human macrophages (PBMC derived, differentiated in media with 10% human serum and M-CSF 20 ng/ml, 7 days) were stimulated with K12 LPS (100 ng/ml), FSL-1 (100 ng/ml) or CL075 (3 μg/ml). […] (B) qPCR for mRNA expression of IFNβ, IL-6, TNF and IL-1β, average for three biological replicates, error bars ±SD.
(§2) The effect of P7-Pen on TLR2-mediated pro-inflammatory cytokine expression was investigated.

[3] = system: TLR2; assay: Primary human macrophages stimulated with FSL-1: cytokine mRNA, Western blot, IRAK precipitations; type: cell-based
Procedure: as §1
(§3) Primary human macrophages (7 days) were pre-treated with Pen or P7-Pen (15 μM) for 30 min before addition of LPS (100 ng/ml), FSL-1 (100 ng/ml) or CL075 (3 μg/ml). A: Protein expression in lysates for input control. B,C: Precipitations were performed using sheep anti-IRAK4 (B) or anti-IRAK1 (C) polyclonal antibodies covalently bound to magnetic beads.
as §2

[4] = target: T1, SLAMF1 (Homo sapiens, UniProt Q13291); assay: Co-precipitation of SLAMF1 with peptide; type: binding; conditions: data not shown
T1 sequence (Q13291 21-335): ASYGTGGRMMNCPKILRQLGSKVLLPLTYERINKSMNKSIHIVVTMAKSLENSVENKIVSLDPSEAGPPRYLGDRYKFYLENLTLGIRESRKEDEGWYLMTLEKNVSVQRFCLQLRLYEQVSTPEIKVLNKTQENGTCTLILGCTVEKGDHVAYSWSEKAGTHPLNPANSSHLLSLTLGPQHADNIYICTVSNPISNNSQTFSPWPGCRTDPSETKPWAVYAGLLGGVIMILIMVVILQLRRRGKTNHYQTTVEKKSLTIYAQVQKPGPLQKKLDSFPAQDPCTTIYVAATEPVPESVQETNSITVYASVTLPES
From the text: The striking effect of the P7 peptide on bacterial uptake could explain the blockade of TLR4-mediated IFNβ secretion by this peptide, because activation of IFNβ expression can only be initiated from the endosomal compartment. This effect could also be mediated by peptide interaction with Rab11 FIP2 (data not shown), which is a crucial regulator of TRAM trafficking and the uptake of both Gram-negative and Gram-positive bacteria by macrophages (Skjesol, supra). […] P7 is derived from a C-terminal β-sheet, and so could complex with the SLAMF1 N-terminal beta sheet. Given the effect of P7-Pen on bacterial uptake, it could be used to block bacterial uptake by monocytes, thus making bacteria more exposed to antibiotic treatment.

[5] = target: T2, SLAMF1-TRAM interaction (Homo sapiens, UniProt Q86XR7); assay: Co-precipitation of SLAMF1 and TRAM^Flag in the presence of ECFP-tagged peptides; type: binding; conditions: N-terminal ECFP-tagged peptides, HEK-293T lysates, anti-Flag IP
T2 construct: expressed in transfected cells; host or cells: HEK-293T
From the text: (A) Western blot analysis of SLAMF1 and TRAM^Flag co-precipitated in the presence of CFP-tagged peptides. TRAM^Flag was precipitated from cell lysates on agarose beads and distributed across 15 tubes. […] Unbound proteins/peptides were removed by a washing step, and pecipitates analysed by WB (anti-Flag IPs). Reduced SLAMF1 binding to TRAM indicates inhibition of the TRAM/SLAMF1 interaction by the peptide. (B) Sequences of the peptides that were expressed as ECFP-tagged proteins (N-terminal ECFP). Peptides 4 and 5 are not shown and were not pursued.
HEK293T cells expressing Flag-tagged proteins were lysed using 1×lysis buffer (150 mM NaCl, 50 mM TrisHCl (pH 8.0), 1 mM EDTA, 1% NP40), supplemented with EDTA-free Complete Mini protease Inhibitor Cocktail Tablets and PhosSTOP phosphatase inhibitor cocktail from Roche, 50 mM NaF and 2 mM […] (Sigma). IPs were carried out by rotation of cell lysates at 4° C. for 2 h with anti-flag (M2) agarose (Sigma). Beads were washed 5 times with lysis buffer and heated for 5 min with 1×NuPAGE® LDS Sample Buffer (Thermo Fisher Scientific) before analysis of precipitates by Western blotting. […]
Inhibition of the TRAM-SLAMF1 interaction using SLAMF1-derived peptides was tested. For the first line of experiments, SLAMF1-derived peptides were co-expressed as N-terminal ECFP-tagged proteins together with SLAMF1 and TRAM^FLAG constructs in HEK-293T cells.

[6] = system: TLR8; assay: Primary human macrophages stimulated with CL075: cytokine mRNA, Western blot, IRAK precipitations; type: cell-based; conditions: CL075-treated primary human macrophages
Procedure: as §1, §3

T2 sequence (Q86XR7 whole entry): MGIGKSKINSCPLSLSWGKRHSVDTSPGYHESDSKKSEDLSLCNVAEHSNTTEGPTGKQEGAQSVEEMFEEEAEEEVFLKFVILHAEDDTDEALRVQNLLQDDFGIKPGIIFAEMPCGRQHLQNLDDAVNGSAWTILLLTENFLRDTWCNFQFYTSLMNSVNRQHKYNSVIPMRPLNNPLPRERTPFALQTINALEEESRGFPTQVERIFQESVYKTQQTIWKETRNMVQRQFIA

- co-precipitation of SLAMF1 [4]: could also co-precipitate
- inhibitory effect on SLAMF1-TRAM co-precipitation [5]: highest efficacy
Substance: P7: SEQ ID NO: 1; amino acids 324-333 of SLAMF1 with a proline to threonine substitution at position 10 (ITVYASVTLT; P7) [Peptide P7]
- phosphorylation of TAK1 kinase and IRAK1 ubiquitination/phosphorylation [1]: interfered
- phosphorylation of p38 MAPK and IL-6, TNF and IL-1β expression [2]: fully inhibited
- phosphorylation of p38 MAPK and IL-6, TNF and IL-1β expression ([3]; FSL-1-treated primary human macrophages): not
- phosphorylation of p38 MAPK, posttranslational modifications of IRAK1, recruitment of IRAK1 and 4 to MyD88 ([3]; TLR2-stimulated cells, 15 μM, FSL-1 100 ng/ml): does not inhibit
- phosphorylation of p38 MAPK and IL-6, TNF and IL-1β expression [6]: not
